From US9315544B2, “Method of treating eosinophilia by administering an immunomodulating peptide” (National Tsing Hua University, priority 2012, dated 2016) come the findings set out here.

In one assay the test system is CCL11. Description: Cytokine mRNA expression analysis by quantitative real-time PCR (CCL11). The format is cell-based. As to conditions: Beas-2B cells. The procedure:
FIG. 1A-1B illustrates immunomodulatory effect of CMP on transcription of cytokine. Beas-2B cells were starved with serum free medium for 24 h, followed by stimulation with refold 5 μM ECP or 5 μM CMP or co-treatment with 5 μM ECP and 5 μM CMP at 37° C. for (A) 6 h and (B) 12 h, respectively. The mRNA quantities of CCL11, CCL24 and CCL26 were determined by real-time PCR. Beas-2B cells without protein treatment were used as control. […] The data represented at least three independent experiments and the error bar was shown as standard deviation (SD).
For inflammatory cytokine expression analysis, Beas-2B cells were stimulated with three different conditions: 1) 5 μM ECP, 2) 5 μM CMP and 3) co-incubated with 5 μM ECP and 5 μM CMP at 37° C. for 6 and 12 h. After incubation, total RNAs were extracted with RNA TRIzol reagent (Invitrogen, Inc) and reverse transcribed with MoMLV-reverse transcriptase (Promega, Madison, Wis.). SYBR Green-based quantitative real-time PCR will be used to quantify the gene of interest, relative expression ratios of genes of interest were normalized to glyceraldehyde-3-phosphate dehydrogenase (GAPDH) transcripts. Changes in cytokine expression were measured by quantitative real-time PCR (qRT-PCR) employing the StepOne™ amplification and detection system (Life Technologies Corporation). Data were analyzed by application of the StepOne™ quantification program software (version 2.22, Life Technologies Corporation) and expressed as means±S.D. Significance analysis was carried out by a two-sample unequal variance t-test with two-tailed distribution (post test). Significance was set as P<0.05.
ECP, the best known marker protein of asthma, is involved in triggering cytokine expression in bronchial epithelial cells. Real-time PCR analysis was carried out to quantify expression levels of indicated cytokines upon treatment with recombinant ECP in the presence and absence of CMP Bronchial epithelial Beas-2B cells were separately cultured in serum-free medium in the presence of 5 μM ECP, 5 μM CMP and both 5 μM ECP and 5 μM CMP for 6 and 12 h to monitor cytokine and chemokine gene modulation using real-time quantitative PCR. Untreated Beas-2B cells incubated at the same condition for 6 h and 12 h were used as negative controls. Here variation of gene expression levels of chemokines including CCL11, CCL24 and CCL26 was analyzed.

Assay [1] relates to mite-induced airway inflammation. The assay can be described thus: Lung histopathology (H&E), peri-bronchiolar and alveolar inflammation scores. The format is in vivo, BALB/c mouse. From the text:
(§1) FIG. 4 illustrates experimental design. All groups except control group were immunized with mite crude extract allergen on days 1 and 8, then mite crude extract allergen intratracheally on day 15 in all mite treated group, BALB/c mouse were divided into six groups (1) control group (PBS), (2) mites delivered intratracheally (mIT, mite on day 15) alone, (3) CMP intranasal (eIN, CMP on days 1 to 22) alone, (4) preventive-treatment group (eIN+mIT, CMP on days 1 to 14, mite on day 15) (5) therapy-treatment group (mIT+eIN, mite on day 15, CMP on days 15 to 22), and (6) preventive- and therapeutic-treatment group (eIN+mIT+eIN, CMP on days 1 to 22, mite on day 15).
FIG. 6A-6B illustrates inhibitory effect of CMP on influx of inflammatory cells. […] (A) Scores for peri-bronchiolar, alveolar inflammation and (B) PAS were determined based on the histological sections. Each result was expressed as the mean±S.D., n=4. ***, P<0.001. […]
The formalin-fixed lung sections stained with hematoxylin and eosin (H&E) were assigned a unit value for alveolar, peri-bronchiolar, and total inflammation by computing the means of three independent scores for three randomly selected fields. […] For evaluating the hyperplasia goblet cells, medium-sized airways were assessed in sections stained with periodic acid-Schiff (PAS) stain. Two reviewers independently and randomly scored 10 fields of each slide. […]

A further assay concerns mite-specific IgE. Description: Serum mite-specific IgE by ELISA. Type of assay: in vivo, BALB/c mouse.
Description: as §1
FIG. 8 illustrates inhibitory effect of CMP on serum IgE level. […] Levels of serum Derp-specific IgE were measured by enzyme-linked immunosorbent assay (ELISA). Each result was expressed as the mean±S.D., n=4. *, P<0.05, **, P<0.01. […]
Mite protein (5 μg) was coated on the plated at 4° C. overnight. […] The levels of serum mite-specific IgE were measured by enzyme-linked immunosorbent assay (ELISA).
To further analyze therapeutic effect of CMP on mite sensitization, serum mite-specific IgE levels in mice were measured from all six treatment groups. […]

As to NYRWRCKNQN (CMP), the “effect on chemokine gene expression (CCL11, CCL24, CCL26)” value in the assay on CCL11 (5 μM CMP alone, 6 and 12 h) is recorded as “no effect”. In the assay on CCL11 (co-treatment 5 μM ECP and 5 μM CMP, 6 h), the “ECP-induced gene expression of CCL11” value is “significant reduction”. In addition, in assay [1] (eIN+mIT+eIN compared with eIN+mIT and mIT+eIN group), the “effect on peribronchiolar, alveolar inflammation and goblet cells hyperplasia” value is listed as “more potently suppressive effect”. For the same sequence, in assay [1] (eIN+mIT+eIN group (CMP days 1 to 22)), the “peri-bronchiolar and alveolar scores compared with mIT group” value is on record as “significantly lower”. Further, the “serum mite-specific IgE level compared with mIT group” value in the assay on mite-specific IgE (eIN+mIT+eIN group, day 23) is on record as “much lower”. Besides, in the assay with mite-specific IgE (mIT vs eIN+mIT, mIT+eIN and eIN+mIT+eIN groups, day 18), the “serum mite-specific IgE reading of mIT group compared with CMP groups” value is on record as “higher”.
